Data published in PubChem BioAssay (NCI).
Where “and” joins values, the source holds several entries; their conditions need not be identical. Equal values may be shown once.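 Step 1: Grow cells in 96-well plates. Step 2: Expose to compound for 48 hours at 5 concentrations. Step 3: Interpolate endpoints linearly; if unreached, use highest concentration. The concentration for 50% growth inhibition is given as GI50. Definition used: TGI = concentration required for complete inhibition of growth.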 Where a SMILES comes first, the peptide text is derived from it. The star is where a group is joined. Boc = CC(C)(C)OC(=O)*

Experiments:
Test in all cases: NCI tumour cell line growth inhibition, 48 h
[1] = tested on: LOX IMVI melanoma
[2] = tested on: HCC-2998 colon
[3] = tested on: TK-10 renal
[4] = tested on: MOLT-4 leukemia
[5] = tested on: SK-MEL-28 melanoma
[6] = tested on: M14 melanoma
[7] = tested on: A549 NSCLC
[8] = tested on: ACHN renal
[9] = tested on: KM12 colon
[10] = tested on: BT-549 breast

| Structure (SMILES) | TGI [1] | TGI [2] | TGI [3] | TGI [4] | TGI [5] | TGI [6] | TGI [7] | TGI [8] | TGI [9] | TGI [10] | GI50 [5] |
| --- | --- | --- | --- | --- | --- | --- | --- | --- | --- | --- | --- |
| Oc1cccc2c(Br)ccnc12 | 12.7 µM | 31.7 µM | > 100 µM | 6.91 µM | 38.3 µM | 16.3 µM | > 100 µM | 27.5 µM | 21.1 µM | > 45.7 µM | – |
| Cc1c(OCc2cccc3ccccc23)ccc2c(=O)cc(SCCN3CCOCC3)oc12 | > 100 µM | > 100 µM | > 100 µM | > 100 µM | > 100 µM | > 100 µM | > 100 µM | > 100 µM | > 100 µM | > 100 µM | – |
| CC(c1ccccc1)n1cncc1C(=O)NN1CCN(C)CC1 (centres undefined) | > 10 µM | – | > 10 µM | > 10 µM | > 10 µM | > 10 µM | > 10 µM | > 10 µM | > 10 µM | > 10 µM | – |
| CC(C)[C@H](C)/C=C/[C@@H](C)C1CC[C@H]2[C@@]34C=C[C@]5(C[C@@H](O)CC[C@]5(C)[C@H]3CC[C@]12C)OO4 (some centres undefined) | 41.6 µM | 50.9 µM | > 100 µM | > 100 µM | > 100 µM | > 100 µM | > 100 µM | > 100 µM | > 100 µM | 92.7 µM | – |
| Cc1cn(C2CC(COCc3ccccc3)N(CCO[Si](C)(C)C(C)(C)C)O2)c(=O)[nH]c1=O (centres undefined) | – | – | 27.3 µM | 32.3 µM | 34.7 µM | 29.5 µM | 28.4 µM | 28.9 µM | 31.1 µM | – | – |
| CCC1=C(C[C@H]2NCCc3cc(OC)c(OC)cc32)C[C@H]2c3cc(OC)c(OC)cc3CCN2C1 | – | 0.0964 µM | – | > 100 µM | 0.192 µM | 0.069 µM | – | 0.28 µM | – | – | – |
| COC(=O)C(Cc1c[nH]c2ccccc12)NC(=O)C(Cc1c[nH]c2ccccc12)NC(=O)C(Cc1c[nH]c2ccccc12)NC(=O)C(Cc1c[nH]c2ccccc12)NC(=O)C(Cc1c[nH]c2ccccc12)NC(=O)C(Cc1c[nH]c2ccccc12)NC(=O)C(Cc1c[nH]c2ccccc12)NC(=O)OC(C)(C)C (centres undefined) (Boc-WWWWWWW-OMe; configuration not given here) | > 100 µM | > 100 µM | > 100 µM | > 100 µM | > 100 µM | 58.9 µM | > 100 µM | > 100 µM | – | > 100 µM | – |
| COC(=O)CCC(=O)NC1=C(Nc2ccccc2)C(=O)c2ccccc2C1=O | 13.9 µM | 37.9 µM | 41.6 µM | 38.9 µM | 17.7 µM | 7.27 µM | 37 µM | 29.5 µM | 32.5 µM | 23.4 µM | – |
| O=C1N2CCC[C@H]2CS1(=O)=O | 27.3 µM | 32.2 µM | 32.2 µM | 22.5 µM | 41.2 µM | 31.6 µM | 47.3 µM | 29.7 µM | 30.8 µM | 30.2 µM | – |
| O=[N+]([O-])c1ccc(N2N=C(c3c(O)ccc4ccccc34)CC2c2ccc(Cl)cc2)c([N+](=O)[O-])c1 (centres undefined) | – | > 100 µM | > 100 µM | 32.4 µM | > 100 µM | 71 µM | 88.1 µM | > 100 µM | 45.5 µM | > 100 µM | – |
| O=c1cc(N2CCOCC2)n2c(ccc3ccccc32)n1 | > 100 µM | > 100 µM | > 100 µM | > 100 µM | – | > 100 µM | > 100 µM | > 100 µM | > 100 µM | > 100 µM | – |
| C=C(CN(CC)CC)C1(c2ccccc2)CC2(CCCC2)C(=O)O1 (centres undefined) | > 100 µM | > 100 µM | > 100 µM | > 100 µM | > 100 µM | > 100 µM | > 100 µM | > 100 µM | > 100 µM | – | – |
| Cc1ccc(N=C/C=C(\Nc2ccc(C)cc2)c2ccc3ccccc3c2)cc1 | 1.91 µM | – | 6.82 µM | 0.533 µM | 11.2 µM | 8.69 µM | 13.2 µM | 7.77 µM | 4.43 µM | 13.6 µM | – |
| Cc1ccc(N2C(=O)C3CSCN3C2=O)cc1 (centres undefined) | > 100 µM | > 100 µM | – | > 100 µM | > 100 µM and 31.2 µM | – | > 100 µM | – | > 100 µM | – | > 100 µM |
| CC(C)(C)OC(=O)C(C#N)C(=O)c1ccc(C(=O)O)[nH]1 (centres undefined) | > 100 µM | – | > 100 µM | > 100 µM | > 100 µM | > 100 µM | > 100 µM | > 100 µM | > 100 µM | > 100 µM | – |
| COc1ccc(OC)c2c(C)ccnc12 | 46.5 µM | > 100 µM | > 100 µM | – | > 100 µM | 34.3 µM | 97.7 µM | > 100 µM | > 100 µM | > 100 µM | – |
| S=C1C(=Nc2ccccc2)N(c2ccccc2)/C(=N\c2cccc[n+]2Cc2ccccc2)N1c1ccccc1 | – | 27.2 µM | 99.8 µM | > 100 µM | 37.3 µM | 27.5 µM | 52.7 µM | 45 µM | 32 µM | 27.4 µM | – |
| CCOC(=O)C1CCC(=O)N1C(=O)c1cccc(Cl)c1 (centres undefined) | > 100 µM | – | > 100 µM | > 100 µM | > 100 µM | > 100 µM | > 100 µM | > 100 µM | > 100 µM | > 100 µM | – |
| Oc1ccc(Cl)cc1-c1cc(-c2ccccc2)nc(=S)[nH]1 | > 100 µM | > 100 µM | 68.7 µM | > 100 µM | > 100 µM | > 100 µM | > 100 µM | > 100 µM | > 100 µM | – | – |
| COc1ccc(/C=c2\[nH]c3nc(=O)c(N4CCCCC4)c(N)n3c2=O)cc1 | > 100 µM | > 100 µM | > 100 µM | > 100 µM | > 100 µM | > 100 µM | > 100 µM | > 100 µM | > 100 µM | – | – |
| O=c1c2ccccc2nc(N/N=C/c2ccc([N+](=O)[O-])cc2)n1-c1ccccc1 | > 100 µM | – | 56.3 µM | > 100 µM | 30.1 µM | > 100 µM | > 100 µM | 62.9 µM | > 100 µM | 46 µM | – |
| CCOC(=O)c1cc2c3c(c(C(C)=O)c(OC)c2[nH]1)N(C(=O)CC)CC3 | 29.6 µM | 76.5 µM | – | 35.9 µM | 44.7 µM | 50.5 µM | 38.7 µM | – | 26.3 µM | 47.1 µM | – |
